Measured values from patent US4252984A, “Phenol ethers” (Synthelabo, priority 1975, dated 1981).
Where two headings read alike, the source gives them in different places.

What was measured:
in vivo = settings: mouse, mortality over 5 days, confidence limits: 95%
Method: Acute toxicity: The acute toxicity for oral and intravenous administration was evaluated for CD1 male mice of average weight 20 g. The mortality was recorded over a period of 5 days following the administration of the compounds.

β1 -adrenergic receptors = target: T1, β1 -adrenergic receptors (Rattus norvegicus, UniProt P18090); experiment: Studies on isolated organs: antagonism of isoprenaline-induced tachycardia and increase in contractile force in isolated rat auricles (pA2); parameters: species or system rats; settings: for Effect on inotropism, ratio of activity to that of metoprolol: isoprenaline contractile force; for Effect on inotropism, ratio of activity to that of metoprolol / Effect on chronotropism, ratio of activity to that of metoprolol: metoprolol = 1.0; for Kb / pA2, effect on chronotropism / pA2, effect on inotropism: 31° C.
T1 construct: from tissue; host or cells: isolated rat auricles (atria)

[1] = intravenous administration, read-out: LD50 intravenous administration
[2] = oral administration, read-out: LD50 oral administration
[3] = isoprenaline increase in contractile force, read-out: pA2, effect on inotropism (converted)
[4] = isoprenaline tachycardia, read-out: pA2, effect on chronotropism (converted)
[5] = isoprenaline increase in contractile force

T1 sequence (P18090 whole entry): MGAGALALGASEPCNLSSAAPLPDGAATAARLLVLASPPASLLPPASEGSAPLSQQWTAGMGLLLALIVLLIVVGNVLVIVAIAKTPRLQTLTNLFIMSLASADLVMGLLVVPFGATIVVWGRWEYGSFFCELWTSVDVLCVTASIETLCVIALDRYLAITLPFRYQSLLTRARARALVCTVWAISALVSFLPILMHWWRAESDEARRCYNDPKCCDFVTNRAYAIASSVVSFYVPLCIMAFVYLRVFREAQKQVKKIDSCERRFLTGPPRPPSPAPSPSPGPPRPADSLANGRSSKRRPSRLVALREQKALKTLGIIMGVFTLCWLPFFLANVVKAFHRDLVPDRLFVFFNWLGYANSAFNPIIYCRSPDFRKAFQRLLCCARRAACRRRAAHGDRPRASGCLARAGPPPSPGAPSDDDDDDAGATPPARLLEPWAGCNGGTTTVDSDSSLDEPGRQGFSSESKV

Structure (SMILES) | LD50 at 120 h (in vivo; [1]) [mg/kg] | LD50 at 120 h (in vivo; [2]) [mg/kg] | Effect on inotropism, ratio of activity to that of metoprolol (β1 -adrenergic receptors) | Kb (β1 -adrenergic receptors; [3]) [nM] | pA2, effect on chronotropism (β1 -adrenergic receptors; isoprenaline tachycardia) | Effect on chronotropism, ratio of activity to that of metoprolol (β1 -adrenergic receptors; isoprenaline tachycardia) | Kb (β1 -adrenergic receptors; [4]) [nM] | pA2, effect on inotropism (β1 -adrenergic receptors; [5])
COCCc1ccc(OCC(O)CNC(C)C)cc1 (stereo not shown) [METOPROLOL, 1-[4-(2-methoxy-ethyl)-phenoxy]-3-isopropylamino-propan-2-ol, reference compound] | 62 | 1050 |  |  |  |  |  | 
CC(C)NCC(O)COc1ccc(CCSCC2CCC2)cc1 (stereo not shown) [SL D.056, 1-[4-(2-Cyclobutylmethylthio-ethyl)-phenoxy]-3-isopropylamino-propan-2-ol] |  |  | 0.09 | 132 | 7.11 | 0.3 |  | 
CC(C)NCC(O)COc1ccc(OCCOCC2CC2)cc1 (stereo not shown) [SL D.177, 1-{4-[2-(cyclopropylmethoxy)-ethoxy]-phenoxy}-3-isopropylamino-propan-2-ol] | 76 | 610 | 1.1 | 10.7 |  | 2.8 | 8.13 | 
CC(C)(C)NCC(O)COc1ccc(OCCOCC2CC2)cc1 (stereo not shown) [SL D.178, 1-{4-[2-(Cyclopropylmethoxy)-ethoxy]-phenoxy}-3-t-butylamino-propan-2-ol] | 53 | 445 | 1.0 | 11 |  | 1.4 | 20 | 
CC(C)NCC(O)COc1ccc(CCOCC2CC2)cc1 (stereo not shown) [SL D.212, 1-{4-[2-(Cyclopropylmethoxy)ethyl]-phenoxy}-3-isopropylamino-propan-2-ol] | 37 | 944 |  |  |  |  |  | 
CC(C)NCC(O)COc1ccc(COCC2CC2)cc1 (stereo not shown) [SL D.224, 1-[4-(cyclopropylmethoxymethyl)-phenoxy]-3-isopropylamino-propan-2-ol] | 88 | 1400 |  |  |  |  |  | 
CC(C)NCC(O)COc1ccc(OCC2CC2)cc1 (stereo not shown) [SL D.230, 1-[4-(Cyclopropylmethoxy)-phenoxy]-3-isopropylamino-propan-2-ol] | 48 | 750 | 2.1 | 5.37 |  | 4.6 | 5.01 | 
CC(C)(C)NCC(O)COc1ccc(OCC2CC2)cc1 (stereo not shown) [SL D.231, 1-[4-(Cyclopropylmethoxy)-phenoxy]-3-t-butylamino-propan-2-ol] | 36 | 1200 | 0.3 | 33.9 |  | 0.8 | 28.8 | 
CC(C)NCC(O)COc1ccc(CCOCC2CCC2)cc1 (stereo not shown) [SL D.254, 1-{4-[2-(Cyclobutylmethoxy)-ethyl]-phenoxy}-3-isopropylamino-propan-2-ol] | 28 | 658 |  |  |  |  |  | 
CC(C)NCC(O)COc1ccc(CCOCC2CCCCC2)cc1 (stereo not shown) [SL D.268, 1-{4-[2-(Cyclohexylmethoxy)-ethyl]-phenoxy}-3-isopropylamino-propan-2-ol] | 35 |  | 0.03 | 398 | 6.84 | 0.2 |  | 
CC(C)NCC(O)COc1ccc(CCOCC2CCCC2)cc1 (stereo not shown) [SL D.291] | 56 |  | 0.08 | 148 | 6.89 | 0.2 |  | 
CC(C)NCC(O)COc1ccc(OCCSCC2CC2)cc1 (stereo not shown) [SL D.299, 1-[4-(2-Cyclopropylmethylthio-ethoxy)-phenoxy]-3-isopropylamino-propan-2-ol] |  |  | 0.8 | 14.8 |  | 1.3 | 17.4 | 
CC(C)NCC(O)COc1ccc(OCCCC2CC2)cc1 (stereo not shown) [SL D.311, 1-(4-Cyclopropylpropoxy-phenoxy)-3-isopropylamino-propan-2-ol] | 71 |  | 0.2 | 52.5 |  | 0.2 | 91.2 | 
CC(CC#N)NCC(O)COc1ccc(CCOCC2CCC2)cc1 (stereo not shown) [SL E.024, 1-[4-(2-Cyclobutylmethoxy-ethyl)-phenoxy]-3-(1-methyl-2-cyano-ethylamino)-propan-2-ol] |  |  | 0.02 | 617 | 6.47 | 0.07 |  | 
CC(=O)NCCNCC(O)COc1ccc(CCOCC2CCC2)cc1 (stereo not shown) [SL E.025, 1-[4-(2-Cyclobutylmethoxy-ethyl)-phenoxy]-3-(2-acetylamino-ethylamino)-propan-2-ol] |  |  | 0.2 |  |  | 0.6 | 37.2 | 7.21
CC(CCc1ccccc1)NCC(O)COc1ccc(CCOCC2CCC2)cc1 (stereo not shown) [SL E.049] |  |  | 0.01 | 1230 | 5.11 |  |  | 
CC(CCc1ccc(F)cc1)NCC(O)COc1ccc(CCOCC2CCC2)cc1 (stereo not shown) [SL E.059] |  |  | 0.02 | 692 | 5.54 |  |  | 
CC(C)NCC(O)COc1ccc(CCS(=O)(=O)CC2CCC2)cc1 (stereo not shown) [SL E.060, 1-[4-(2-Cyclobutylmethylsulphonyl-ethyl)phenoxy]-3-isopropylamino-propan-2-ol] |  |  | 1.0 |  |  | 1.9 | 11.7 | 7.94
CC(C)NCC(O)COc1ccc(CCCOCC2CCC2)cc1 (stereo not shown) [SL E.061] |  |  | 0.1 | 89.1 | 7.02 | 0.2 |  | 
CC(C)NCC(O)COc1ccc(COCC2CCC2)cc1 (stereo not shown) [SL E.080] |  |  | 0.4 | 30.2 | 7.44 | 0.6 |  | 
CC(C)NCC(O)COc1ccc(OCCOCC2CCC2)cc1 (stereo not shown) [SL E.096, 1-[4-(2-cyclobutylmethoxyethoxy)-phenoxy]-3-isopropylamino-propan-2-ol] |  |  | 2.2 | 5.13 |  | 4.1 | 5.62 | 
COc1ccc(CCNCC(O)COc2ccc(CCOCC3CCC3)cc2)cc1OC (stereo not shown) [SL E.111] |  |  | 0.1 | 74.1 | 7.75 | 1.3 |  | 
CC(C)NCC(O)COc1ccc(OCCS(=O)(=O)CC2CC2)cc1 (stereo not shown) [SL E.155, 1-[4-(2-Cyclopropylmethylsulphonyl-ethoxy)phenoxy]-3-isopropylamino-propan-2-ol] |  |  | 0.08 | 141 |  | 0.1 | 162 | 
CC(C)NCC(O)COc1ccc(OCCOCC2CCCC2)cc1 (stereo not shown) [SL E.203] |  |  | 1.00 | 10.7 |  | 4.17 | 5.5 | 
